Measurements as given in ChEMBL document CHEMBL1133015 (J Med Chem, 2000).
One block for each compound: values may come before it.

Tests used:
Substance-K receptor [1] = target: T1, Substance-K receptor (Homo sapiens, UniProt P21452); test: Tested for binding affinity against Tachykinin receptor 2 expressed in CHO cells, using [125]SP as radioligand.; type: cell-based
T1 sequence (P21452 whole entry): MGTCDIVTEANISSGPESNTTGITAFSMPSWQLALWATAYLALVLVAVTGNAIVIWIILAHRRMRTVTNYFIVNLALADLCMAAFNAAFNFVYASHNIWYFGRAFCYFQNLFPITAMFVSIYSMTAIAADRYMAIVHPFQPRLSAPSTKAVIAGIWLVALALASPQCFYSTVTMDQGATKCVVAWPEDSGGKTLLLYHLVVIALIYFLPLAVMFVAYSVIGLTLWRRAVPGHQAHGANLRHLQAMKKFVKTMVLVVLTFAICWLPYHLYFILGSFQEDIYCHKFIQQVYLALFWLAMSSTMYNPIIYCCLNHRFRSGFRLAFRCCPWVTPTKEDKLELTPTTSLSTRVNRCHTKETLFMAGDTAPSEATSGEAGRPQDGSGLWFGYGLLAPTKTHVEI

Substance-P receptor [2] = target: Substance-P receptor (Homo sapiens, UniProt P25103, H265A); test: Tested for binding affinity against H265A mutant NK1 receptor using [125]SP radioligand in COS cells.; type: cell-based
Substance-P receptor [3] = target: Substance-P receptor (Homo sapiens, UniProt P25103, Q165A); test: Tested for binding affinity against Q165A mutant NK1 receptor expressed in CHO cells, using [125]SP as radioligand; type: cell-based
Substance-P receptor [4] = target: T2, Substance-P receptor (Homo sapiens, UniProt P25103); test: Tested for binding affinity against human wild type NK1 receptor expressed in CHO cells, using [125]SP as radioligand.; type: cell-based
Substance-P receptor [5] = target: Substance-P receptor (Homo sapiens, UniProt P25103, H197A); test: Tested for binding affinity against H197A mutant NK1 receptor using [125]SP radioligand in COS cells.; type: cell-based
Substance-P receptor [6] = target: T2, Substance-P receptor; test: Tested for binding affinity against Tachykinin receptor 1 expressed in CHO cells, using [125]SP as radioligand; NA - did not bind; type: cell-based
Substance-K receptor [7] = target: T1, Substance-K receptor; test: Tested for binding affinity against Tachykinin receptor 2 expressed in CHO cells, using [125]SP as radioligand; NA - did not bind; type: cell-based
Substance-P receptor [8] = target: T2, Substance-P receptor; test: Tested for binding affinity against Tachykinin receptor 1
Substance-P receptor [9] = target: T2, Substance-P receptor; test: Tested for binding affinity against Tachykinin receptor 1 expressed in CHO cells, using [125]SP as radioligand.; type: cell-based
Substance-P receptor [10] = target: T2, Substance-P receptor; test: Tested for binding affinity against Tachykinin receptor 1 expressed in CHO cells, using [125]SP as radioligand at 1 uM; type: cell-based
Somatostatin receptor = test: Tested for binding affinity against somatostatin receptor on AtT-20 cells; type: cell-based; conditions: att20
[11] = target: Somatostatin receptor type 4 (Homo sapiens, UniProt P31391); test: Tested for binding affinity against human somatostatin receptor subtype 4 (hSSTR4)
[12] = tested on: Substance-P receptor (Homo sapiens), P25103 [Q165A]; test: Inhibition against Q165A mutant NK1 receptor expressed in CHO cells, using [125]SP as radioligand at 1 uM; type: cell-based
Sequence of Substance-P receptor (Homo sapiens), P25103 [Q165A] (P25103 whole entry Q165A): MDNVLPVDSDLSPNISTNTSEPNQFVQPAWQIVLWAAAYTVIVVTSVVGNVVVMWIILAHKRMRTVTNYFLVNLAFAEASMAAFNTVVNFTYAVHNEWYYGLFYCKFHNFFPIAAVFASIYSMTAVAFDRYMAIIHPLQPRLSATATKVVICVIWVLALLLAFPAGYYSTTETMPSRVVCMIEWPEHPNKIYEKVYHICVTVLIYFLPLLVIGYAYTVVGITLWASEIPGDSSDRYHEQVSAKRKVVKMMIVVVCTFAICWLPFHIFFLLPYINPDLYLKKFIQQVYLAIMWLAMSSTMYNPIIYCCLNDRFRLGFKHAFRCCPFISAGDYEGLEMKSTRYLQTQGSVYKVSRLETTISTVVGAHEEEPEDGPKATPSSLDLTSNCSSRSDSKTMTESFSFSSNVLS

Sequence of Substance-P receptor (Homo sapiens, UniProt P25103, H265A) (P25103 whole entry H265A): as the sequence (P25103 whole entry Q165A) above, with A165Q, H265A counted along it
Sequence of Substance-P receptor (Homo sapiens, UniProt P25103, H197A) (P25103 whole entry H197A): as the sequence (P25103 whole entry Q165A) above, with A165Q, H197A counted along it
T2 sequence (P25103 whole entry): as the sequence (P25103 whole entry Q165A) above, with A165Q counted along it
Sequence of Somatostatin receptor type 4 (P31391 whole entry): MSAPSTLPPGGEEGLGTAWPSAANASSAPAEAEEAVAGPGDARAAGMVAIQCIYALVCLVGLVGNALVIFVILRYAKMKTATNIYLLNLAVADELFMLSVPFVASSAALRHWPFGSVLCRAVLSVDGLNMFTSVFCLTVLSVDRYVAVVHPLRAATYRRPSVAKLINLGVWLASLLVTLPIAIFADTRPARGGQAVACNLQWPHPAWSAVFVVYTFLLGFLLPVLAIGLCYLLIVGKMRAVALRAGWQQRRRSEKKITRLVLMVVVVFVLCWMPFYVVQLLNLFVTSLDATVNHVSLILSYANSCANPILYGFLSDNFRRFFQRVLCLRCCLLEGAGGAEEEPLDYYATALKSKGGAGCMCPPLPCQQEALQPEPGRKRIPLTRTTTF
Sequence of Substance-P receptor (Homo sapiens, UniProt P25103, Q165A) (P25103 whole entry Q165A): as the sequence (P25103 whole entry Q165A) above

IC50 (Substance-K receptor [1]): 850 nM
SMILES: C[C@H](NC(=O)CN)C(=O)N[C@H]1CSSC[C@@H](C(=O)O)NC(=O)[C@H](CO)NC(=O)[C@H]([C@@H](C)O)NC(=O)[C@H](Cc2ccccc2)NC(=O)[C@H]([C@@H](C)O)NC(=O)[C@H](CCCCN)NC(=O)[C@H](Cc2c[nH]c3ccccc23)NC(=O)[C@H](Cc2ccccc2)NC(=O)[C@H](Cc2ccccc2)NC(=O)[C@H](CC(N)=O)NC(=O)[C@H](CCCCN)NC1=O

IC50 (Substance-P receptor [2]): 8200 nM
IC50 (Substance-P receptor [3]): 3600 nM
IC50 (Substance-P receptor [4]): 1400 nM
IC50 (Substance-K receptor [1]): 730 nM
IC50 (Substance-P receptor [5]): 2700 nM
SMILES: C[C@H](NC(=O)CN)C(=O)N[C@H]1CSSC[C@@H](C(=O)O)NC(=O)[C@H](CO)NC(=O)[C@H]([C@@H](C)O)NC(=O)[C@H](Cc2ccccc2)NC(=O)[C@H]([C@@H](C)O)NC(=O)[C@H](Cc2ccc(F)cc2)NC(=O)[C@H](Cc2c[nH]c3ccccc23)NC(=O)[C@H](Cc2ccccc2)NC(=O)[C@H](Cc2ccccc2)NC(=O)[C@H](CC(N)=O)NC(=O)[C@H](CCCCN)NC1=O

IC50 (Substance-P receptor [6]): Not Active
IC50 (Substance-K receptor [7]): Not Active
SMILES: C[C@H](NC(=O)CN)C(=O)N[C@H]1CSSC[C@H](C(=O)O)NC(=O)[C@H](CO)NC(=O)[C@H]([C@@H](C)O)NC(=O)[C@H](Cc2ccccc2)NC(=O)[C@H]([C@@H](C)O)NC(=O)[C@H](CCCCN)NC(=O)[C@@H](Cc2c[nH]c3ccccc23)NC(=O)[C@H](Cc2ccccc2)NC(=O)[C@H](Cc2ccccc2)NC(=O)[C@H](CC(N)=O)NC(=O)[C@H](CCCCN)NC1=O

IC50 (Substance-P receptor [8]): 28 nM
SMILES: C[C@@H](O)[C@@H]1NC(=O)[C@H](Cc2ccc(F)cc2)C2C(=O)[C@@H](Cc3c2[nH]c2ccccc32)NC(=O)[C@H](Cc2ccccc2)NC(=O)[C@@H]2CCCC2C(=O)[C@H](Cc2ccccc2)NC1=O (stereo not given in full)

IC50 (Substance-P receptor [2]): 6100 nM
IC50 (Substance-P receptor [4]): 240 nM
IC50 (Substance-K receptor [1]): 27 nM
IC50 (Substance-P receptor [9]): 220 nM
IC50 (Substance-P receptor [5]): 950 nM
SMILES: C[C@H](NC(=O)CN)C(=O)N[C@H]1CSSC[C@@H](C(=O)O)NC(=O)[C@H](CO)NC(=O)[C@H]([C@@H](C)O)NC(=O)[C@H](Cc2ccccc2)NC(=O)[C@H]([C@@H](C)O)NC(=O)[C@H](Cc2ccc(F)cc2)NC(=O)[C@@H](Cc2c[nH]c3ccccc23)NC(=O)[C@H](Cc2ccccc2)NC(=O)[C@H](Cc2ccccc2)NC(=O)[C@H](CC(N)=O)NC(=O)[C@H](CCCCN)NC1=O

IC50 (Substance-P receptor [2]): 9600 nM
IC50 (Substance-P receptor [4]): 260 nM
IC50 (Substance-K receptor [1]): 46 nM
IC50 (Substance-P receptor [9]): 250 nM
IC50 (Substance-P receptor [5]): 900 nM
SMILES: C[C@@H](O)[C@@H]1NC(=O)[C@H](Cc2ccccc2)NC(=O)[C@H]([C@@H](C)O)NC(=O)[C@H](Cc2ccc(F)cc2)NC(=O)[C@@H](Cc2c[nH]c3ccccc23)NC(=O)[C@H](Cc2ccccc2)NC(=O)[C@H](Cc2ccccc2)NC(=O)[C@H](CC(N)=O)NC(=O)[C@H](CCCCN)NC(=O)[C@@H](N)CSSC[C@@H](C(=O)O)NC(=O)[C@H](CO)NC1=O

IC50 (Substance-P receptor [8]): 120 nM
SMILES: NCCCCCOC[C@H]1O[C@@H](OCCc2c[nH]c3ccccc23)[C@H](OCc2ccccc2)[C@@H](OCc2ccccc2)[C@@H]1OCc1ccccc1

inhibition (Substance-P receptor [10]): 7%
SMILES: C[C@H](NC(=O)CN)C(=O)N[C@H]1CSSC[C@H](C(=O)O)NC(=O)[C@H](CO)NC(=O)[C@H]([C@@H](C)O)NC(=O)[C@H](Cc2ccccc2)NC(=O)[C@H]([C@@H](C)O)NC(=O)[C@H](CCCCN)NC(=O)[C@H](Cc2c[nH]c3ccccc23)NC(=O)[C@H](Cc2ccccc2)NC(=O)[C@H](Cc2ccccc2)NC(=O)[C@H](CC(N)=O)NC(=O)[C@H](CCCCN)NC1=O

IC50 (Somatostatin receptor): 15000 nM
IC50 [11]: 100 nM
SMILES: C[C@@H](O)[C@@H]1NC(=O)[C@H](CCCCN)C2C(=O)[C@@H](Cc3c2[nH]c2ccccc32)NC(=O)[C@H](Cc2ccccc2)NC(=O)[C@@H]2CCCC2C(=O)[C@H](Cc2ccccc2)NC1=O (stereo not given in full)

inhibition [12]: 30%
SMILES: C[C@H](NC(=O)CN)C(=O)N[C@H]1CSSC[C@H](C(=O)O)NC(=O)[C@H](CO)NC(=O)[C@H]([C@@H](C)O)NC(=O)[C@H](Cc2ccccc2)NC(=O)[C@H]([C@@H](C)O)NC(=O)[C@H](Cc2ccc(F)cc2)NC(=O)[C@@H](Cc2c[nH]c3ccccc23)NC(=O)[C@H](Cc2ccccc2)NC(=O)[C@H](Cc2ccccc2)NC(=O)[C@H](CC(N)=O)NC(=O)[C@H](CCCCN)NC1=O

inhibition [12]: 37%
SMILES: C[C@@H](O)[C@@H]1NC(=O)[C@H](Cc2ccc(F)cc2)NC(=O)[C@@H](Cc2c[nH]c3ccccc23)NC(=O)[C@H](Cc2ccccc2)NC(=O)[C@H](Cc2ccccc2)NC(=O)[C@H](CC(N)=O)NC(=O)[C@H](CCCCN)NC(=O)[C@@H](N)CSSC[C@H](C(=O)O)NC(=O)[C@H](CO)NC(=O)[C@H]([C@@H](C)O)NC(=O)[C@H](Cc2ccccc2)NC1=O
